Assay results published in PubChem BioAssay (NCI).
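All cell lines were grown in 96-well plates and treated with compound for 48 hours. TGI denotes the concentration required for complete inhibition of growth.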

How the values were obtained:
Test in all cases: NCI-60 cell line screen, 48 h
CAKI-1 renal = test system: CAKI-1 renal
SNB-19 CNS = test system: SNB-19 CNS
MDA-MB-435 = test system: MDA-MB-435
NCI-H460 lung = test system: NCI-H460 lung
TK-10 renal = test system: TK-10 renal
K-562 leukemia = test system: K-562 leukemia
IGROV1 ovarian = test system: IGROV1 ovarian
HL-60(TB) leukemia = test system: HL-60(TB) leukemia
RXF 393 renal = test system: RXF 393 renal
SNB-75 CNS = test system: SNB-75 CNS
786-0 renal = test system: 786-0 renal
UACC-257 melanoma = test system: UACC-257 melanoma
HS 578T breast = test system: HS 578T breast
SW-620 colon = test system: SW-620 colon
HCT-116 colon = test system: HCT-116 colon
MDA-MB-231 breast = test system: MDA-MB-231 breast
HCT-15 colon = test system: HCT-15 colon
SF-295 CNS = test system: SF-295 CNS
U251 CNS = test system: U251 CNS
HOP-62 NSCLC = test system: HOP-62 NSCLC
A498 renal = test system: A498 renal
MOLT-4 leukemia = test system: MOLT-4 leukemia
HCC-2998 colon = test system: HCC-2998 colon
COLO 205 colon = test system: COLO 205 colon
MALME-3M melanoma = test system: MALME-3M melanoma
ACHN renal = test system: ACHN renal
CCRF-CEM leukemia = test system: CCRF-CEM leukemia
UACC-62 melanoma = test system: UACC-62 melanoma
SK-OV-3 ovarian = test system: SK-OV-3 ovarian
EKVX NSCLC = test system: EKVX NSCLC
HOP-92 NSCLC = test system: HOP-92 NSCLC
NCI/ADR-RES ovarian = test system: NCI/ADR-RES ovarian
MCF7 breast = test system: MCF7 breast
SR leukemia = test system: SR leukemia
NCI-H226 lung = test system: NCI-H226 lung
BT-549 breast = test system: BT-549 breast
SK-MEL-28 melanoma = test system: SK-MEL-28 melanoma
SF-268 CNS = test system: SF-268 CNS
OVCAR-3 ovarian = test system: OVCAR-3 ovarian
HT29 colon = test system: HT29 colon
OVCAR-4 ovarian = test system: OVCAR-4 ovarian
DU-145 prostate = test system: DU-145 prostate
UO-31 renal = test system: UO-31 renal
SF-539 CNS = test system: SF-539 CNS
SK-MEL-2 melanoma = test system: SK-MEL-2 melanoma
A549 NSCLC = test system: A549 NSCLC
SK-MEL-5 melanoma = test system: SK-MEL-5 melanoma
OVCAR-5 ovarian = test system: OVCAR-5 ovarian
RPMI-8226 leukemia = test system: RPMI-8226 leukemia
SN12C renal = test system: SN12C renal
KM12 colon = test system: KM12 colon
PC-3 prostate = test system: PC-3 prostate
T-47D breast = test system: T-47D breast
NCI-H23 lung = test system: NCI-H23 lung
OVCAR-8 ovarian = test system: OVCAR-8 ovarian
M14 melanoma = test system: M14 melanoma
LOX IMVI melanoma = test system: LOX IMVI melanoma
MDA-N = test system: MDA-N
NCI-H522 lung = test system: NCI-H522 lung

Measured: TGI

O=C(O)C1CC(O)CN1 (centres undefined)
not listed: NCI-H522 lung
> 100 µM: all other assays above

Cc1cn(CC2=NCC(C)N2)c(=O)[nH]c1=O (centres undefined)
not listed: CAKI-1 renal | MDA-MB-435 | HL-60(TB) leukemia | CCRF-CEM leukemia | OVCAR-3 ovarian | OVCAR-4 ovarian | SF-539 CNS | KM12 colon
> 100 µM: all other assays above
